Consider 15 compounds from PMC9936582, “Sulfamate Acetamides as Self-Immolative Electrophiles for Covalent Ligand-Directed Release Chemistry” (Journal of the American Chemical Society, 2023).

Data set [1] is described as follows: GSH consumption assay (LC/MS). The settings on record: for reactivity towards GSH relative to chloroacetamide (1a): 5 mM GSH, 200 μM electrophile, pH 8, 14 °C; for covalent bond formation with GSH: assay conditions or temperatures up to 37 °C for 24 h.
Procedure: A sample from the reaction mixture was injected to an LC/MS every hour, and we quantified the decrease in starting material over the course of the reaction.
All solvents were bubbled with argon. Reaction mixtures were kept at 10 °C. Every 1 h, 5 μL from the reaction mixture were injected into the LC/MS. The reaction was followed by the peak area of the electrophile normalized by the area of the 4-nitrocyano benzene (i.e., by the disappearance of the starting material). The natural logarithm of the results was fitted to linear regression, and t1/2 was calculated as t1/2 = ln 2/–slope.
Data set [2] can be described thus: Glutamic acid reactivity of model compounds (LC/MS). The settings on record: pH 8, 37 °C; 4 days.
Data set [3] has as its target T1, BTK (Homo sapiens, UniProt Q06187). The data set is described as follows: In vitro kinase activity assay (Nanosyn). The settings on record: for BTK inhibition (in words): 0.5 nM BTK, 5 μM ATP.
Target sequence in this assay (Q06187 whole entry): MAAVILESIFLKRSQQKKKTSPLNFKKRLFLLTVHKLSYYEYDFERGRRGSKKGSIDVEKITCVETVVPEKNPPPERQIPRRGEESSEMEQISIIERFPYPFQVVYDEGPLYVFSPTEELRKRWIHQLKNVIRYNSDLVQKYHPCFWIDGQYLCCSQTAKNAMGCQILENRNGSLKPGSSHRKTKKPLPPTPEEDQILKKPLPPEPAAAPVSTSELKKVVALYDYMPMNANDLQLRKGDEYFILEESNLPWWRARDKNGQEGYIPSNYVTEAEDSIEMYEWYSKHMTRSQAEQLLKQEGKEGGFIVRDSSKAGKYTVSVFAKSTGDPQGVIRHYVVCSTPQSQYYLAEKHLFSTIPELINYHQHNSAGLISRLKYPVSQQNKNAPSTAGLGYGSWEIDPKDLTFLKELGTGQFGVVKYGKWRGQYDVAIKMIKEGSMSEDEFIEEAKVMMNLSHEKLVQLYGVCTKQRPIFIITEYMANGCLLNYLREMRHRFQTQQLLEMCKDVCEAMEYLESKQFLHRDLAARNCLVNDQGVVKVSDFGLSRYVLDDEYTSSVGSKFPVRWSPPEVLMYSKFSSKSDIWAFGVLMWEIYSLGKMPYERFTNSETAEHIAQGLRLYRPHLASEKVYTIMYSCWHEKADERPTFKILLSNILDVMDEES
Data set [4] concerns the target T1, BTK. The data set is described as follows: BTK activity (autophosphorylation) in Mino cells, Western blot. On the set-up: endogenous in cells; host or cells: Mino cells. The data set is classed as cell-based. On the procedure:
To assess the cellular efficacy of these compounds, we followed the inhibition of BTK autophosphorylation in Mino cells. After 1 h of pre-incubation with the inhibitors and B-cell activation with an anti-IgM antibody, BTK autophosphorylation was followed by Western blot.
The cell pellets were subjected to immunoblotting, and Western blots were performed for p-BTK, BTK, and β-actin.
Cell pellets were washed with ice-cold PBS and lysed using RIPA buffer (Sigma, R0278). […] Samples containing 50 μg total protein were prepared with 4× LDS sample buffer (NuPAGE, Thermo Scientific, NP0007) and 20 mM DTT, which were then resolved on a 4–20% Bis–Tris gel (GeneScript SurePAGE, M00657). […] An EZ-ECL Kit (Biological Industries, 20-500-1000) was used to detect HRP activity.
Target sequence in this assay (Q06187 whole entry): as above

Data set [5] addresses T1, BTK. The data set is described as follows: Intact protein mass spectrometry labeling of recombinant BTK. The data set is classed as binding. More on the design: BTK kinase domain was expressed and purified as previously reported; made in house. The note with it: 2 μM BTK, 2 μM compound, pH 8, 25 °C. As for the experimental part:
BTK kinase domain was expressed and purified as previously reported.[66] Binding experiments were performed in Tris 20 mM (pH 8.0) and 50 mM NaCl at room temperature.
(§1) The reaction mixtures, at room temperature for various times, were injected into the LC/MS. For data analysis, the raw spectra were deconvoluted using a 20,000:40,000 Da (For Pin1, 10,000:30,000) window and 1 Da resolution. The labeling percentage for a compound was determined as the labeling of a specific compound (alone or together with other compounds) divided by the overall detected protein species.
Target sequence in this assay (Q06187 402-655 limits assumed): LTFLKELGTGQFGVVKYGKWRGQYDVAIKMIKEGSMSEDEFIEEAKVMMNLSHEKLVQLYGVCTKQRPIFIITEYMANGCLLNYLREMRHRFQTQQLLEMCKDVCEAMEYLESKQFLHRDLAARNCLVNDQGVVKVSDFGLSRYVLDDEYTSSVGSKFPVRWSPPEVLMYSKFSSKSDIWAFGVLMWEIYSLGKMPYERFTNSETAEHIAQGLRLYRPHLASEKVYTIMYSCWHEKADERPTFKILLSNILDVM

The next data set can be described thus: Buffer stability assay. The data set is classed as physicochemical.
The target of the next data set is T2, Pin1 (Homo sapiens, UniProt Q13526).
T2 construct: The catalytic domain of Pin1 (2 μM) in […] and 75 mM NaCl (pH 7.5) was incubated; made in house
The data set is described as follows: Intact protein MS labeling of Pin1. The data set is classed as binding. The settings on record: 2 μM Pin1, 2 μM compound, pH 7.5, 1 h, 25 °C. As for the experimental part:
Initially, we incubated these compounds (4a–4g; 2 μM) with Pin1 (2 μM; 50 mM Tris buffer; pH 7.5, 1 h; 25 °C) to check covalent labeling by intact protein MS (Figure 5B,C; Figure S23). Under these conditions, sulfopin labeled 59% as previously reported;[38] the sulfonate (4a) labeled 18%, whereas alkyl sulfamates (4b and 4c) labeled 16 and 56%, respectively. […] We have previously reported that replacing the tert-butyl group in sulfopin by a cyclohexyl increases the labeling along with intrinsic thiol reactivity. Compound 4g contains a cyclohexyl group instead of the tert-butyl and a phenyl sulfamate electrophile and was able to label >95% of Pin1 under these conditions.
Pin1 was expressed and purified as previously reported.[38] The catalytic domain of Pin1 (2 μM) in […] and 75 mM NaCl (pH 7.5) was incubated with 2 μM sulfopin sulfamate (4a–4g) for 1 h at 25 °C.
as §1

Data set [6] in a line: DTNB thiol reactivity assay. The data set is classed as physicochemical. As for the experimental part:
The compound 5,5′-dithio-bis(2-nitrobenzoic acid) (DTNB; 50 μM) was incubated with 200 μM tris(2-carboxyethyl)phosphine (TCEP) in 20 mM sodium phosphate buffer (pH 7.4) and 150 mM NaCl for 5 min at room temperature to obtain TNB^–2. […] UV absorbance was acquired every 15 min for 7 h. The assay was performed in a 384-well plate using a Tecan Spark 10 M plate reader. […] Compounds were measured in triplicate. The data were fitted to a second-order reaction equation such that the rate constant (K) is the slope of ln([A][B0]/[B][A0]), where [A0] and [B0] are the initial concentrations of the compound (200 μM) and TNB^–2 (100 μM), respectively, and [A] and [B] are the remaining concentrations as a function of time as deduced from spectrometric measurements. Linear regression using Prism was performed to fit the rate against the first 7 h of measurements.

A short description of data set [7]: Metabolic stability of sulfopin analogues in liver microsomes. The data set is classed as in vitro ADME. On the procedure:
Next, we examined the buffer stability of the sulfopin sulfamate acetamides in PBS buffer (pH 8; 37 °C). Similar to the model compounds, the chloroacetamide (sulfopin) and sulfonate (4a) warheads show 30 and 15% hydrolysis after 2 days, respectively (Figure S26).
Figure S27: Sulfopin sulfamates show high metabolic stability: Compounds (Sulfopin, 4d, and 4g) were incubated
in liver microsomes and injected to LC/MS/MS at indicated time points. The peak intensities of the compounds were […]
Background: Liver microsomes are vesicles of endoplasmic reticulum, rich in cytochrome P450 enzymes.

Entries after “also recorded” stand apart in the source; their conditions may differ.

T2 sequence (Q13526 52-163 limits assumed): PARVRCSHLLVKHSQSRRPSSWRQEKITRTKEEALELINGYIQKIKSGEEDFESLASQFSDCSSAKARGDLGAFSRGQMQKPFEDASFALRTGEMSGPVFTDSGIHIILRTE
Procedure for Buffer stability assay: Reaction mixtures were kept at 37 °C with shaking. After 4 days (unless otherwise mentioned), 5 μL from the reaction mixture were injected into the LC/MS to check the stability of the compounds.

As for `CNS(=O)(=O)OCC(=O)NCc1ccccc1` [1d], in [1], the “reactivity towards GSH relative to chloroacetamide (1a)” value was “an order of magnitude less reactivity”. The “reaction with glutamic acid” value in [2] is “did not react”.
The like results for `O=C(COS(=O)(=O)NCc1ccccc1)NCc1ccccc1` [1e] were, in that order, “an order of magnitude less reactivity” and “did not react”.
Consider `CS(=O)(=O)CC(=O)NCc1ccccc1` [1i], for which, in [1], the “covalent bond formation with GSH” value is reported as “did not form a covalent bond with GSH”.
Turning to `O=C(CS(=O)(=O)c1ccccc1)NCc1ccccc1` [1j], the “covalent bond formation with GSH” value in data set [1] was “did not form a covalent bond with GSH”.
With `Nc1ncnc2c1c(-c1ccc(Oc3ccccc3)cc1)nn2[C@@H]1CCCN(C(=O)CCl)C1` [3a], at BTK [3], the “BTK inhibition (in words)” value is on record as “potent BTK inhibition”. In addition, at BTK [4], the “less potency in cellular pBTK inhibition” value is 20 fold.
As to `CS(=O)(=O)OCC(=O)N1CCC[C@@H](n2nc(-c3ccc(Oc4ccccc4)cc3)c3c(N)ncnc32)C1` [3b], on BTK [3], the “BTK inhibition (in words)” value is “potent BTK inhibition”. Further, at BTK [4] (anti-IgM activation, Western blot normalized to β-actin), the IC50 is 6 nM. For the same compound, on BTK [5] (within 10 min), the “labeling of BTK” value is “more than 95%”.
In the case of `Nc1ncnc2c1c(-c1ccc(Oc3ccccc3)cc1)nn2[C@@H]1CCCN(C(=O)COS(=O)(=O)Nc2ccccc2)C1` [3e], the midpoint of inhibition against BTK [3], the IC50, lay at 100 nM.
`CS(=O)(=O)CC(=O)N1CCC[C@@H](n2nc(-c3ccc(Oc4ccccc4)cc3)c3c(N)ncnc32)C1` [3f]: the “covalent reaction with BTK” value on BTK [5] is “no labeling; also recorded: failed to react covalently with BTK”.
As for `Nc1ncnc2c1c(-c1ccc(Oc3ccccc3)cc1)nn2[C@@H]1CCCN(C(=O)CS(=O)(=O)c2ccccc2)C1` [3g], at BTK [3], the IC50 turned out to be 500 nM. Moreover, the “covalent reaction with BTK” value on BTK [5] is “no labeling; also recorded: failed to react covalently with BTK”.
As for `CC(C)(C)CN(C(=O)COS(C)(=O)=O)C1CCS(=O)(=O)C1` (stereo not drawn) [4a], the “hydrolysis (buffer stability, sulfopin analogues)” value in the data set “Buffer stability assay” (200 μM, PBS buffer pH 8, 37 °C for four days) worked out at 15%; in “Buffer stability assay” (PBS buffer pH 8, 37 °C, after 2 days) it was 15%. Also, the “labeling of Pin1” value on Pin1 is 18%.
For the compound `CNS(=O)(=O)OCC(=O)N(CC(C)(C)C)C1CCS(=O)(=O)C1` (stereo not drawn) [4b], the “labeling of Pin1” value at Pin1 amounted to 16%.
As for `CC(C)(C)CN(C(=O)COS(=O)(=O)NCc1ccccc1)C1CCS(=O)(=O)C1` (stereo not drawn) [4c], the “thiol reactivity compared to sulfopin” value in [6] was “lower thiol reactivity than sulfopin”. The “labeling of Pin1” value at Pin1 is recorded as 56%.
The corresponding values for `CC(C)(C)CN(C(=O)COS(=O)(=O)Nc1ccc(Br)cc1)C1CCS(=O)(=O)C1` (stereo not drawn) [4e] are “lower thiol reactivity than sulfopin” and above 90%.
Consider `Cc1ccc(NS(=O)(=O)OCC(=O)N(CC(C)(C)C)C2CCS(=O)(=O)C2)cc1` (stereo not drawn) [4f], for which the “labeling of Pin1” value on Pin1 was “less than 30%”.
With `O=C(COS(=O)(=O)Nc1ccccc1)N(CC1CCCCC1)C1CCS(=O)(=O)C1` (stereo not drawn) [4g], in data set [6], the “thiol reactivity compared to sulfopin” value is reported as “slightly higher reactivity”. In addition, the “labeling of Pin1” value on Pin1 is above 95%. Moreover, in data set [7], the “metabolic stability (in words)” value was “good metabolic stability”.

One may read the IC50 as the point on the concentration scale where inhibition reaches its midpoint.
